The values below come from ChEMBL document CHEMBL3596190, “Non-classical -carbonic anhydrase inhibitors-towards novel anti-mycobacterials” (Medchemcomm, 2014).

pKi: −log10 of the molar value. Values after ≈ are worked out from the molar mass of the structure shown. Active and inactive are the calls of the source. No cut-off for these calls is given here.

The subject of assay [1] is Mycobacterium tuberculosis. The assay is described as follows: Effect on quaternary structure of un-tagged Mycobacterium tuberculosis beta-carbonic anhydrase Rv3588c at pH 6.0 by size exclusion chromatography.
Assay [2] relates to Mycobacterium tuberculosis. The assay is described as follows: Effect on quaternary structure of un-tagged Mycobacterium tuberculosis beta-carbonic anhydrase Rv3588c at pH 8.5 by size exclusion chromatography.
The test system of assay [3] is BL21-AI. The assay is described as follows: Inhibition of His6-tagged Mycobacterium tuberculosis Rv3588c expressed in Escherichia coli BL21-AI cells assessed as increase in Hill coefficient at 25 uM by stopped flow CO2 hydration assay based Michaelis-Menten analysis.
Assay [4] is described as follows: Inhibition of His6-tagged Mycobacterium tuberculosis Rv3588c expressed in Escherichia coli BL21-AI cells by stopped flow CO2 hydration assay based Michaelis-Menten analysis. It is filed as cell-based.
For assay [5], the system named is Mycobacterium tuberculosis. Briefly: Growth inhibition of Mycobacterium tuberculosis H37Ra incubated for 7 days by resazurin dye based fluorescence assay. It counts as functional. Conditions: 168 h.
The target in assay [6] is T1, Beta-carbonic anhydrase 1 (Mycobacterium tuberculosis) (UniProt P9WPJ7).
T1 sequence (whole entry): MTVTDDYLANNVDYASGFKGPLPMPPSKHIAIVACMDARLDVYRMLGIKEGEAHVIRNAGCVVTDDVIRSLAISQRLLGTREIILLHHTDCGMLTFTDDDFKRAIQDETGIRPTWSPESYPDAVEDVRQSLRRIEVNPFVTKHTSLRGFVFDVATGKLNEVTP
The assay is described as follows: Binding affinity to His6-tagged Mycobacterium tuberculosis Rv1284 expressed in Escherichia coli BL21-AI cells assessed as […] in melting temperature at 250 uM by SYPRO orange dye based differential scanning fluorimetry.

Assay [7] deals with BL21-AI. Conditions: Mycobacterium tuberculosis, at 25 µM.
Description: Inhibition of His6-tagged Mycobacterium tuberculosis Rv3588c expressed in Escherichia coli BL21-AI cells assessed as reduction in Vmax at 25 uM by stopped flow CO2 hydration assay based Michaelis-Menten analysis

In the case of `C=C1CC[C@@H](C/C=C(\C)CC/C=C(/CCC=C(C)C)C(=O)O)C(C)(C)[C@H]1CC/C(C)=C/C(=O)O`, the outcome in assay [1] and in assay [2] was inactive. The inhibition entry in the assay with BL21-AI [3] and in the assay with BL21-AI [7] was “Active” in each case. In assay [4], the pKi was 5.00. This compound also gave an MIC90 in assay [5] above 50 µM. Further, in assay [6], the deltaTm is 5.4 K.
In the case of `COc1c(Br)cc(/C=C/C(=O)NCCCNCCCCNCCCNC(=O)/C=C/c2cc(Br)c(OC)c(Br)c2)cc1Br` [IANTHELLIFORMISAMINE C], the outcome in assay [1] and in assay [2] was inactive. Also, the inhibition result with BL21-AI [3] and with BL21-AI [7] was “Active” in each case. In assay [4], this compound gave a pKi of 4.80. Besides, in assay [5], the MIC90 amounted to 12.5 µM (≈ 10.5 µg/mL). In assay [6], the deltaTm came out at 1 K.
As to `COc1c(Br)cc(C/C(=N\O)C(=O)NCCCC(=O)N(C)CCCCN(C)CCCNC(=O)/C(Cc2cc(Br)c(OC)c(Br)c2)=N/O)cc1Br` [SPERMATINAMINE], the result in assay [1] and in assay [2] was inactive. In addition, the inhibition entry in the assay on BL21-AI [3] is “Active”. The pKi in assay [4] was 4.64. In assay [5], this compound registered an MIC90 of 6.3 µM (≈ 6.03 µg/mL). For the same compound, the deltaTm in assay [6] came to 1.2 K.
As for `N#C[S-].[Na+]` [THIOCYANATE SODIUM], in assay [4], the pKi was 5.10. Besides, the inhibition entry in the assay on BL21-AI [7] was “Active”.
